From patent publication US7259140B2, “Heparin-binding peptides and uses thereof” (Thomas Jefferson University, priority 2003, dated 2007)
Entries after “also recorded” stand apart in the source; their conditions may differ. Ends that are not written are not given here.

How the values were obtained:
[1] = Affinity coelectrophoresis (ACE) of peptide binding to radiolabeled low Mr heparin; parameters: species or system pig
Text: Preparation of Radiolabeled Heparin. Whole heparin from pig intestinal mucosa (Sigma) was tyramine end-labeled and radiolabeled with Na^125I (Amersham, Pharmacia Biotech, Inc., Piscataway, N.J.) to an average specific activity≅1.0×10^7 CPM/μg as described (San Antonio, J. D., et al., Biochemistry, 32:4746-4755, 1993). Radiolabeled heparin was fractionated on Sephadex G-100 (Bio-Rad Laboratories, Hercules, Calif.) and the final≅12% of material to elute was retained as the low Mr material of ≦6,000 (Jordan, R., D. Beeler, and R. Rosenberg, J. Biol. Chem., 254:2902-2913, 1979; Laurent, T. C., et al., Biochem. J., 175:691-701, 1978).
Analysis of Peptide-Heparin Interactions by Affinity Coelectrophoresis (ACE). ACE was used to study interactions between peptides and low molecular weight (low Mr) heparin (WO00/45831). In ACE, trace concentrations of radiolabeled heparin are electrophoresed through agarose lanes containing peptides at various concentrations. These analyses are used to determine the dissociation constants (Kd's). The electrophoretic patterns of radiolabeled heparin are then visualized using a phosphorimager, and the dissociation constant (Kd) corresponds to the protein concentration at which the heparin is half shifted from being fully mobile at very low protein concentrations to maximally retarded at saturating protein concentrations. The lower the Kd value, the higher the affinity.
Binding of radiolabeled heparin to peptides was studied by ACE as detailed elsewhere (San Antonio, J. D., et al., Biochemistry, 32:4746-4755, 1993). […] Briefly, peptides were dissolved in 1×ACE running buffer, 50 mM sodium 3-(N-morpholino)-2-hydroxypropanesulfonate (MOPSO, Sigma)/125 mM sodium acetate, pH 7.0, and serially diluted in running buffer at 2× concentrations. Peptides were then mixed 1:1 with 2% agarose/1% CHAPS, 3-[(3-cholamidopropyl)dimethylammonio]-1-propanesulfonate, (Boehringer Mannheim, Indianapolis, Ind.), and loaded into wells of a 1% agarose gel. Radiolabeled heparin was then loaded in a slot on the anode side of the gel, and electrophoresed through the peptide-containing wells, towards the cathode. Gels were dried and PG mobility was measured with a Phosphorimager (Molecular Dynamics, Sunnyvale, Calif.) by scanning each protein lane and determining the relative radioactivity content per 88-μm pixel through the length of the lane. Retardation coefficient (R) measurements, binding isotherm curve fittings, and apparent Kd value determinations were calculated as detailed previously (Lee, M. K., and A. D. Lander, Proc. Natl. Acad. Sci. USA, 88:2768-2772, 1991; San Antonio, J. D., et al, Biochemistry, 32:4746-4755, 1993).
Retardation coefficients (R) for the migration of low Mr 1^25I-tyramine-heparin through peptides were determined from ACE gel electrophoretograms, and are plotted against peptide concentration. Smooth curves represent non-linear least-squares fits to the equation R=R∞/{1+(Kd/[peptide])^n}.

[2] = system: Lovenox ® Activity in Blood from Patients Treated with Lovenox ®; assay: Neutralizing Lovenox activity in blood from patients treated with Lovenox (anti-Factor Xa assay); format: biochemical, human; details: Peptide 12 μg/ml
Procedure: Blood was obtained from volunteers who were being treated with Lovenox® for their medical conditions after obtaining signatures on informed consent forms as approved by the Institutional Review Board. The assays to test neutralization of Lovendx® were performed as described for Table 2. A dose response from 1-60 μg/ml was evaluated as in Table 2.
The dose response pattern for the effective peptides was similar to the dose response in control plasma to which Lovenox® had been added. Each data point represents the mean and standard deviation of triplicate analyses on the same sample of blood from each patient.

[3] = Hemodynamic effects in rats after administration of the LMWH Lovenox; details: in the presence of LMWH Lovenox
Procedure: Next, experiments were performed in which the animals were treated with the peptides after the administration of the LMWH Lovenox®, as would happen in the clinical situation, because binding of peptides to LMWH would be expected to reduce the effects of the peptides on hemodynamic function.

[4] = Hemodynamic effects in rats without prior Lovenox; details: no Lovenox
Procedure: Rats were sedated, and catheters were inserted into the femoral vein and femoral artery. The femoral artery catheter was hooked up to the computerized monitoring system, and injections were made through the femoral vein. Peptides were injected into rats without prior injection of Lovenox. Two or more rats (300-350 grams) were treated with 2 mg protamine or peptide.
At the times indicated in the figures, the following actions were taken: administration of saline to insure that the animal and intubations were stable; administration of test peptide or protamine alone; then administration of protamine.

platelets = assay: Platelet aggregation with aggregation-inducing agents; format: cell-based, human; details: 12 μg/ml; Lovenox 0.5 U/ml; collagen, ADP, ristocetin, epinephrine, SFFLRN, A23187
Procedure: Plasma from six volunteers was tested with various aggregation inducing agents, at several concentrations of each agent, and with six different peptides of the invention. The effect of heparin-binding peptides of the invention on platelet aggregation was determined using standard procedures as previously described. The six peptides which were synthesized and tested were: (ARKKAAKA)4 (SEQ ID NO:31), ARKKAAKA(A16)ARKKAAKA (SEQ ID NO:30), (ARKKAAKA)3ARKKCAKA (SEQ ID NO:33), (ARKKAAKA)3VLVLVLVL (SEQ ID NO:5), C(ARKKAAKA)4C (SEQ ID NO:34), and (AKKARA)6 (SEQ ID NO:32).
The aggregation-inducing agents tested were: collagen, adenosine diphosphate (ADP), ristocetin, epinephrine, the thrombin receptor peptide SFFLRN, and calcium ionophore A23187. Platelets were subjected to protamine, or to SEQ ID NOS:31, 33, 30, 5, 34, or 32 at 12 μg/ml, and Lovenox® at 0.5 U/ml. Platelet aggregation in response to agonists was monitored and percent aggregation was determined over a five minute interval.
The agonist was added after equilibration of the platelets for one minute.

[5] = system: anti-Factor Xa Activity of the Low Molecular Weight Heparin Lovenox ®; assay: Anti-Factor Xa assay (Stachrom Heparin kit): neutralization of Lovenox in citrate or plasma in vitro; format: biochemical, human; details: in both citrate and plasma
Procedure: (§1) The ability of peptides such as (ARKKAAKA)3VLVLVLVL (SEQ ID NO:5) to neutralize the anti-Factor Xa activity of UFH and LMWH in vitro was tested using the Stachrom Heparin kit (Diagnostica Stago), a standard hematology laboratory assay used to measure the anti-Factor Xa activity of heparin. The assay was performed using the low molecular weight heparin enoxaparin sodium (Lovenox®, Aventis Pharmaceuticals, Inc.), unfractionated heparin (UFH), or the non-heparin glycosaminoglycan danaparoid sodium (Orgaran®, Organon Inc., West Orange, N.J.) in 0.32% citrate or in plasma anticoagulated with 0.32% citrate. Enoxaparin is commonly used clinically as a low molecular weight heparin (LMWH). Danaparoid is commonly used clinically as a non-heparin glycosaminoglycan anticoagulant. Currently, the only FDA approved drug to target UFH is protamine, which is not effective in vivo against LMWH or a non-heparin glycosaminoglycan such as danaparoid. Buffer and ATIII are added to form the heparin/ATIII complex, peptide is added, then Factor Xa, reporter dye substrate for Factor Xa activity, and stop solution, and the dye concentration is read at 405 nm. The absorbance of the dye increases with increasing Factor Xa activity, and thus is inversely proportional to the heparin (anti-Factor Xa activity) concentration. Peptides were tested in plasma obtained from three volunteers (A, B, and C). Platelet function inhibitors PG12 and theophylline were added to the blood immediately upon collection.
Results. […] (ARKKAAKA)3VLVLVLVL (SEQ ID NO:5) and VLVL(ARKKAAKA)3ARKKCAKA (SEQ ID NO:38) were able to neutralize about 0.4 U/ml anti-Factor Xa activity of LMWH at a concentration of 12 μg/ml, which would be an effective dose for patients. (AKKARA)6 (SEQ ID […]), (ARKKAAKA)4 (SEQ ID NO:31) and (ARKKAAKA)3ARKKCAKA […] 0.3-0.35 U/ml. In contrast, 12 μg protamine only neutralized about 0.25 U/ml of LMWH under these conditions.

[6] = system: anti-Factor Xa Activity of Unfractionated Heparin; assay: Anti-Factor Xa assay: neutralization of unfractionated heparin in citrate or plasma in vitro; format: biochemical, human; details: in both citrate and plasma
Procedure: as §1, with “collection. […]” for “collection.”

For VLVLARKKAAKAPARKKAAKAVLVL, the Kd ([1]; pH 7.0, mean and standard deviation of four assays, read-out: Kd (nM), affinity for low molecular weight heparin) was 5220 ± 1550 nM, the “Lovenox ® Neutralized” value ([2]; blood of Lovenox-treated Patient Number 1) was 0.027 U/ml and the “Lovenox ® Neutralized” value ([2]; blood of Lovenox-treated Patient Number 2) was 0.012 U/ml. For the same substance, the “Lovenox ® Neutralized” value ([2]; blood of Lovenox-treated Patient Number 3) was 0.021 U/ml, the “Lovenox ® Neutralized” value ([2]; blood of Lovenox-treated Patient Number 4) was 0.022 U/ml and the “Lovenox ® Neutralized” value ([2]; blood of Lovenox-treated Patient Number 5) was 0 U/ml. For the same substance, the “Lovenox ® Neutralized” value ([2]; blood of Lovenox-treated Patient Number 8) was 0.018 U/ml, the “Lovenox ® Neutralized” value ([2]; blood of Lovenox-treated Patient Number 9) was 0.007 U/ml and the “Lovenox ® Neutralized” value ([2]; blood of Lovenox-treated Patient Number 10) was 0.025 U/ml. The “Lovenox ® Neutralized” value ([2]; blood of Lovenox-treated Patient Number 11) was 0.050 U/ml.
For “ARKKAAKAARKKAAKAARKKAAKAARKKCAKA [(ARKKAAKA)3ARKKCAKA, (ARKKAAKA)3(ARKKCAKA)]”, the “effect on blood pressure and heart rate / toxicity” value [3] was “no significant effect on blood pressure and heart rate; also recorded: All rats tested showed no response to peptide”, the “effect on blood pressure” value ([4]; 2 mg per rat) was “did not cause a change in blood pressure” and the “effect on platelet aggregation” value (platelets) was “no significant inhibition or enhancement of aggregation”.
In the case of “(ARKKAAKA)4VLVLVLVL (ARKKAAKAARKKAAKAARKKAAKAARKKAAKAVLVLVLVL; Fragment) [SEQ ID NO:1]”, the “affinity for low molecular weight heparin” value [1] is reported as “high affinity”.
With “ARKKAAKA (Fragment) [monomer, control peptide, reference compound]” the “effect in the anti-Factor Xa assay for Lovenox” value [5] was “no effect”, the “affinity for low molecular weight heparin” value [1] was “negligible affinity” and the “effect in the anti-Factor Xa assay for UFH” value [6] was “no effect”.
In the case of “AKKARAAKKARAAKKARAAKKARAAKKARAAKKARA [(AKKARA)6]”, the “reduction/drop of blood pressure” value ([4]; 2 mg per rat (300-350 grams)) is reported as “about 30 mm Hg”, the “time to nadir of blood pressure” value ([4]; 2 mg per rat) is reported as 2 min and the “effect on platelet aggregation” value (platelets) is reported as “no significant inhibition or enhancement of aggregation”.
